Measurements from a melting point compilation (Tetko et al.; mined from patent text by program, amines drawn as free bases though some values may be those of a salt).

melting point [°C]	SMILES
132	Cc1c(-c2cccc(F)c2)nc2n1CCc1ccccc1C2OC1CCN(C)CC1 (stereo not drawn)
90	O=C(CNCc1cccc(-c2ccc(CC(Nc3ccccc3C(=O)c3ccccc3)C(=O)O)cc2)c1)c1ccccc1 (stereo not drawn)
90 to 92	COc1cc(C(C)=O)c(O)cc1N1CCN(Cc2ccccc2)CC1
222	NC(=O)C1=C(O)C(NC(=S)c2ccccc2)C2CC3Sc4c(Cl)ccc(O)c4C(=O)C3=C(O)C2(O)C1=O (stereo not drawn)
63.5	Cc1cc(F)ccc1C(=O)CCCN1CCC(O)(c2cccc(C(F)(F)F)c2)CC1
216 to 218	O=S(=O)(c1ccccc1)n1c2ccc(C=Cc3ccccc3)cc2c2c(Cl)ccnc21
81.4 to 87.2	Cc1ncccc1CN1CCC(=C2c3ccc(Cl)cc3CCc3cccnc32)CC1
110 to 115	O=C(Nc1ccc(C(=O)N2Cc3ccccc3Cc3ccccc32)cc1)c1ccccc1Cl
72.5 to 74	CCCCCCOc1ccc(-c2cc(CO)ccc2CO)cc1
223 to 226	CC(=O)NC(CSCc1ccc(-c2nc(-c3ccccc3)cc(-c3ccccc3)n2)cc1)C(=O)O (stereo not drawn)
176 to 178	CC[C@@H](c1ccccc1)N(Cc1ccc(C(=O)O)cc1OC)S(=O)(=O)c1ccc(Cl)cc1
150 to 154	CCC1CCCN(C(=O)C2Cc3ccccc3N2c2ccc(=O)n(C)n2)C1 (stereo not drawn)
149 to 152	Cc1cccc(C2(Cn3cncn3)CC(COc3ccccc3[N+](=O)[O-])ON2C)c1 (stereo not drawn)
97 to 102	Cn1c(COc2ccc(CC3SC(=O)N(C(c4ccccc4)(c4ccccc4)c4ccccc4)C3=O)cc2)nc2cccnc21 (stereo not drawn)
185 to 186	CCC1CS(=O)(=O)c2ccccc2C2(c3ccccc3)OC12 (stereo not drawn)
152 to 155	CN(C)c1ccc(N(C)C(=O)Cn2c(-c3ccc(Cl)cc3)nc3cccnc32)cc1
78 to 78.5	CN(CCc1cccc(OCc2ccccc2)c1)c1cnc(-c2ccccc2)c(-c2ccccc2)n1
227 to 228	COC(=O)c1cc(O)nn1-c1ccccc1
191 to 192	O=C(NCCO)c1cccc(-c2ccc3cnn(-c4ccc(Cl)cc4Cl)c3c2)c1
245 to 247	CN(C)c1n[nH]c(-c2ccc(F)cc2)c1-c1ccncc1

melting point [°C]	SMILES
168 to 170	COC(=O)c1c2c(c3cc4c(cc3c1-c1ccc(OC)c(OC)c1)OCO4)OCOC2=O
140 to 145	Cc1cn(-c2ccc(C(=O)N3Cc4cccn4Cc4ccccc43)cc2)cn1
85 to 86	Cc1cccc(OC(F)F)c1NC(=O)CCl
194 to 196	Cc1c(CN2CCc3c(c4ccccc4n3C)C2=O)ncn1S(=O)(=O)N(C)C
135 to 137	Nc1ccccc1Sc1ncc[nH]1
103 to 106	COc1ccc2[nH]cc(C3CCC(=O)CC3)c2c1
168 to 170	CSC1C(=O)Nc2c(Oc3ccccc3N)cccc21 (stereo not drawn)
86 to 87	CCOC(=O)Cc1cn(Cc2ccccc2)nc1OCc1ccc(OCc2nc(-c3ccccc3)oc2C)c(OC)c1
210	O=C1CNC(=O)C(CCCCNC(=O)OCc2ccccc2)N1 (stereo not drawn)
218 to 221	COc1cc2c(c3c1OC(C)(C)C3)C(c1cccc(-c3ccc(NC(=O)CNC(C)=O)cc3)c1)=NC(C)(C)C2
244 to 245	CC(C)c1cc(C(=O)Nc2cccc(C(=O)O)c2)oc1C(C)C
136 to 140	O=C1CCC(C(=O)O)(c2ccccc2)CC1
162 to 163	O=C1c2cc3nnn(CC4(c5cccc(F)c5)CC4)c(=O)c3cc2OC2CCCN12 (stereo not drawn)
172 to 175	Cc1[nH]c(=O)ccc1C(=O)c1ccc(C#N)cc1
127 to 128	Cc1nc(N2CCc3ccccc3CC2)c(C#N)c(=O)n1OC(C)C
86 to 87	CC1CC(C)(C)NC(c2ccccc2)=N1 (stereo not drawn)
204 to 206	CCCOc1cc2ccccc2c2c(=O)c(-c3ccc(OC)cc3)c(C)[nH]c12
173	CC(=O)OC1=C(c2nnn(Cc3ccccc3)n2)N(C)S(=O)(=O)c2ccccc21
148 to 151	CCOC(=O)C(=O)Nc1c([N+](=O)[O-])sc2c(F)cccc12
> 260	N#Cc1cc(-c2ccc(Cl)cc2Cl)c[nH]c1=O

melting point [°C]	SMILES
84 to 87	COc1ccc(-c2nc(-c3cccs3)c[nH]2)cc1Br
87 to 89	O=[N+]([O-])c1cc(F)ccc1N1CCc2ccccc21
168	COc1ccc(Br)cc1S(=O)(=O)NC(C)(C)CO
68 to 70	CC(C)(C)OC(=O)N1CCN(CCc2ccc(F)cc2)CC1
90 to 92	O=C(Nc1ccc(OCCCN2CCOCC2)c2ccccc12)c1cc(F)cc(N2CCCCC2)c1
105 to 106	CCCCCCOc1cc(-c2ccc3cc4c(cc3c2)C(C)(C)CCC4(C)C)ccc1C(=O)O
> 230	O=C(O)C(=Cc1c[nH]c2ncccc12)c1ccccc1
207	OCC1OC(n2cnc3c(Nc4ccccc4Cl)ccnc32)C(O)C1O (stereo not drawn)
218 to 220	CN(Cc1cc(C(F)(F)F)cc(C(F)(F)F)c1)C(=O)c1nc(O)ncc1-c1ccccc1
224 to 225	CC(=O)Nc1nc2c(Oc3cc(-c4ccc5c(c4)OC(C)(C)C5)ncn3)cccc2s1
115 to 117	O=C1NCC(Cc2ccc(Br)cc2)O1 (stereo not drawn)
239	CS(=O)(=O)c1ccc(CN2CCN(C(=O)N3CCC(c4cn[nH]c4)C3)c3ccccc32)cc1 (stereo not drawn)
25 to 30	C=CCCCCCCCCCN1C(=O)c2ccccc2C1=O
55 to 58	COC(=O)Cc1ccc(C#C[Si](C)(C)C)cc1
188 to 191	CC(C)N1CCC(COc2ccc(-c3ccc(=O)[nH]n3)cn2)CC1
35 to 45	CCCn1nc(C(C)C)c(C(=O)OCc2cccc(C(=O)c3ccccc3)c2)c1Cc1ccc(-c2ccccc2S(=O)(=O)NC(C)(C)C)c(F)c1
70 to 78	COc1cc(N2CCC(N(C)C)C2)ccc1Nc1ncc2ccc(-c3ccccc3OC)n2n1 (stereo not drawn)
120 to 125	CC(C)(C)C(=O)Oc1cc(-c2oc3ccccc3c(=O)c2C(=O)N2CCN(c3ccccn3)CC2)cc(OC(=O)C(C)(C)C)c1OC(=O)C(C)(C)C

Continued, compound first:

SMILES	melting point [°C]
CCOCC(=O)C1CCC2C3CCC4CC(O)CCC4(C)C3C(=O)CC12C (stereo not drawn)	129 to 131
CC(C)c1cn2cccc(CO)c2n1	97 to 99
Cc1nn(-c2c(Cl)cc(C(F)(F)F)cc2Cl)cc1S(C)(=O)=O	168 to 169
CC12Cc3cnn(-c4ccc(F)cc4)c3C=C1CCC1OC3(CC=C12)C(=O)NC(=O)NC3=O (stereo not drawn)	235 to 236
Cc1csc(C)c1NCc1nnc(S)n1C	184 to 187
O=[N+]([O-])C/C=C/c1sc2ccc(Cl)cc2c1Cl	143 to 146
Cc1ccc(CCc2cc3c(s2)-n2c(C)nnc2CN=C3c2ccccc2Cl)cc1	160 to 162
COc1ccc2[nH]c(SCc3ncc(C)c(N4CCCCC4)c3Cl)nc2c1	154 to 156
CNc1cc(SC2CCN(C)CC2)c(Cl)cc1[N+](=O)[O-]	102
CS(=O)(=O)c1nnc(F)s1	65
CCc1cc(Br)cc2[nH]c(=O)oc(=O)c12	208 to 210
CC(C)(C)c1cc(CO)n(Cc2ccc(C(F)(F)F)cc2Cl)n1	115 to 117
Cc1oc2c(-n3c(=O)cc(C(F)(F)F)n(C)c3=O)ccc(Cl)c2c1[N+](=O)[O-]	174 to 175
Oc1ccc(C2CCC(=CCC3OCCO3)CC2)cc1 (stereo not drawn)	126
CC1=C(C(O)c2ccc3c(c2)CCN(C(N)=O)C3)C(C)(C)CC1 (stereo not drawn)	68.6 to 69.6
CCOC(=O)C1=CCCCC1S(=O)(=O)Nn1cccc1C (stereo not drawn)	100 to 101
Cc1ccc(-c2c(NS(=O)(=O)c3ccc(C(C)(C)C)cc3)ncnc2OCCOc2ccc(C(C)O)cc2)cc1 (stereo not drawn)	176 to 178
CC(=O)Nc1nc(CCc2ccc(CN3CCN(C(=O)OC(C)(C)C)CC3)cc2)cs1	140 to 141
COC(=O)c1cccc(CNC(C)=O)c1C(=O)OC	177 to 179
CC(C)OC(=O)NCNCN=O	66 to 67

SMILES	melting point [°C]
ClCc1cc(I)cc(I)c1I	97 to 98
Cc1c(-c2cccn2C)c(N2CC[C@H](N(C)C)C2)c2oc(C3CC3)nc2c1C#N	127 to 128
COC(=O)c1c(O)cc(OCC(=O)c2ccc3c(c2)C(C)(C)CCC3(C)C)cc1O	162 to 163
CSc1nc(Cl)c(I)c(C(F)(F)F)n1	55 to 56
CCCCNS(=O)(=O)C[C@@H](O)C(O)[C@@H](CC1CCCCC1)NC(=O)[C@@H](N)CC(C)C (relative stereo)	99 to 109
FC(F)(F)c1ccc(Cl)cc1CN1CCNc2ncc(-c3ccnc(N4CCNCC4)c3)cc21	189
N#CC1CN1C(=O)c1ccc(-c2ccccc2)cc1 (stereo not drawn)	104 to 106
CC12C=CCC1C1CCC3CC(=O)CCC3(C)C1CC2 (stereo not drawn)	140 to 141
CCCCN1C(=O)CC(c2cc(C(C)(C)C)c(O)c(C(C)(C)C)c2)C1=O (stereo not drawn)	109 to 112
CC(=O)c1c(C)oc2c(-n3c(=O)cc(C(F)(F)F)n(C)c3=O)c(F)cc(Cl)c12	138 to 140
COC(=O)CCCCC(C[N+](=O)[O-])SCC(=O)O (stereo not drawn)	85 to 91
CCC(C)Nc1c([N+](=O)[O-])cc(C(F)(F)F)c(C)c1[N+](=O)[O-] (stereo not drawn)	38 to 39
CC(CO)(CO)NS(=O)(=O)c1cc(NC(=O)c2cnn3c(C(F)(F)F)cc(-c4ccc(C(F)(F)F)cc4)nc23)c(Cl)s1	201
Cc1ccc(Cl)cc1N1CN(C)CNC1=S	171 to 173
Cc1ccc(/C=C/C(=O)N[C@@H]2N=C(c3ccccc3)c3ccccc3N(C)C2=O)cc1	133 to 135
Cc1ccc(C(C)N(O)C(N)=S)s1 (stereo not drawn)	155
CCOC(=O)Cc1nc(Cl)c(Cl)s1	63
CCc1cc(CCCOc2c(C)cc(C#N)cc2C)on1	50 to 51
O=c1c2c(c1=O)N(CCCP(=O)(O)O)CCCN2	244 to 248
COc1cc(OC)c2c(c1)S(=O)(=O)N(CCl)C2=O	185 to 187
